Laboratory results as given in ChEMBL document CHEMBL1201862, “PubChem BioAssay data set” (2004).
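Values below derive from 48-hour exposures of cells grown in 96-well plates, with endpoints linearly interpolated between the two concentrations bracketing the appropriate inhibition level. GI50: concentration for 50% inhibition of growth.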 Calls of active or inactive are those of the source. Rule as the data show it: active = GI50 up to about 1.1 µM and inactive = higher. Where a SMILES comes first, the peptide text is derived from it. The star is where a group is joined. Cbz = O=C(OCc1ccccc1)*; Bn = c1ccc(C*)cc1

Tests used:
Test in all cases: NCI anticancer screen, dose series, 48 h
LXFL 529 = tested on: LXFL 529
RXF 631 = tested on: RXF 631
DMS-114 = tested on: DMS-114
HOP-18 = tested on: HOP-18
XF498 = tested on: XF498
KM-20L2 = tested on: KM-20L2
MDA-N = tested on: MDA-N
MDA-MB-231 = tested on: MDA-MB-231
NCI/ADR-RES = tested on: NCI/ADR-RES

| SMILES | GI50 (LXFL 529) | GI50 (RXF 631) | GI50 (DMS-114) | GI50 (HOP-18) | GI50 (XF498) | GI50 (KM-20L2) | GI50 (MDA-N) | GI50 (MDA-MB-231) | GI50 (NCI/ADR-RES) |
| --- | --- | --- | --- | --- | --- | --- | --- | --- | --- |
| O=C(/C(=C/c1ccc(O)cc1)c1ccccc1)c1ccccc1 | 16.4 µM (inactive) | 15.3 µM (inactive) | 11.5 µM (inactive) | 18.8 µM (inactive) | – | – | – | – | – |
| Cc1ccc(C2NC(=O)c3ccccc3N2)s1 (configuration not stated) | 7.64 µM (inactive) | – | 5.21 µM (inactive) | – | 3.21 µM (inactive) | 4.55 µM (inactive) | – | – | – |
| Cn1c(=O)c2c(nc(Cc3ccccc3)n2CC(=O)O)n(C)c1=O | – | – | – | – | – | – | > 100 µM (inactive) | > 100 µM (inactive) | > 100 µM (inactive) |
| Cc1ccc(S(=O)(=O)NCCSCCNS(=O)(=O)c2ccc(C)cc2)cc1 | – | – | – | – | – | – | > 100 µM (inactive) | > 100 µM (inactive) | > 100 µM (inactive) |
| C=CCCCCn1c2ccccc2c2c(C)c3cnccc3c(C)c21 | – | – | 3.94 µM (inactive) | 16.1 µM (inactive) | 1.95 µM (inactive) | 6.38 µM (inactive) | – | – | 5.07 µM (inactive) |
| O=P(O)(O)CN1CCN(CP(=O)(O)O)CCN(CP(=O)(O)O)CCN(CP(=O)(O)O)CC1 | – | – | – | – | – | – | 79.4 µM (inactive) | > 100 µM (inactive) | > 100 µM (inactive) |
| COc1ccc2cc(/C=N\NC(=O)Nc3cccc4ccccc34)ccc2c1 | – | – | – | – | – | – | 42 µM (inactive) | 27 µM (inactive) | > 100 µM (inactive) |
| CCOC(=O)C(=O)Nc1ccccc1CC | > 100 µM (inactive) | > 100 µM (inactive) | > 100 µM (inactive) | > 100 µM (inactive) | > 100 µM (inactive) | – | – | – | – |
| Cc1ccc(-c2c(C#N)c(N)nc3c2CCS(=O)(=O)c2ccccc2-3)cc1 | – | – | – | – | – | – | > 100 µM (inactive) | > 100 µM (inactive) | 85.9 µM (inactive) |
| CC(C)OP(=O)(OC(C)C)c1ccc2c(c1)OCCOCCOCCOCCO2 | – | – | – | – | – | – | > 100 µM (inactive) | > 100 µM (inactive) | – |
| CCOC(=O)C1(Cc2ccc3ccccc3c2)CCCCC(=O)N1 (configuration not stated) | 38 µM (inactive) | – | 18.6 µM (inactive) | > 100 µM (inactive) | 30.4 µM (inactive) | 30.5 µM (inactive) | – | – | – |
| N#CCC(=O)N/N=C1/C(=O)N(c2ccc(Cl)cc2)C(=O)C(=O)C1c1nc2ccccc2s1 (configuration not stated) | > 100 µM (inactive) | – | > 100 µM (inactive) | – | > 100 µM (inactive) | > 100 µM (inactive) | – | – | – |
| Nc1c(/N=N/c2ccc(-c3ccc(/N=N/c4c(O)ccc5cc(S(=O)(=O)O)cc(S(=O)(=O)O)c45)cc3)cc2)c(S(=O)(=O)O)cc2cc(S(=O)(=O)O)c(/N=N/c3ccccc3)c(O)c12 | – | – | > 100 µM (inactive) | > 100 µM (inactive) | > 67.6 µM (inactive) | – | – | – | > 100 µM (inactive) |
| COc1ccc2c(c1)CCC(CN1CCN(CCOC(c3ccccc3)c3ccccc3)CC1)C2O (configuration not stated) | – | – | – | – | – | – | 14.3 µM (inactive) | 15.7 µM (inactive) | 13.8 µM (inactive) |
| CC(=O)N1OC(C)CC1Nc1ccc(Br)cc1 (configuration not stated) | – | – | – | – | – | – | 0.252 µM (active) | – | > 100 µM (inactive) |
| O=C(Cc1ccccc1)NN1C(=O)/C(=C\c2ccc(O)cc2)S/C1=N\c1ccccc1 | – | – | – | – | – | – | > 100 µM (inactive) | > 100 µM (inactive) | > 100 µM (inactive) |

| SMILES | GI50 (LXFL 529) | GI50 (RXF 631) | GI50 (DMS-114) | GI50 (HOP-18) | GI50 (XF498) | GI50 (KM-20L2) | GI50 (MDA-N) | GI50 (MDA-MB-231) | GI50 (NCI/ADR-RES) |
| --- | --- | --- | --- | --- | --- | --- | --- | --- | --- |
| Nc1c2c(=O)[nH]c(=O)c2c(N)c2c(=O)c3ccccc3c(=O)c12 | – | – | – | – | – | – | 0.212 µM (active) | 3.02 µM (inactive) | 2.11 µM (inactive) |
| CC1(c2nc3ccccc3[nH]2)CCC(CO)C(C)(C)O1 (configuration not stated) | – | – | – | – | – | – | > 100 µM (inactive) | > 100 µM (inactive) | > 100 µM (inactive) |
| CC1(C)C[C@H]2C=C(C=O)[C@]34C[C@]3(C(=O)OC4O)[C@H]2C1 (some centres not stated) | – | – | – | – | – | – | 1.37 µM (inactive) | 1.48 µM (inactive) | – |
| OCc1ccccc1C1CSCSC1 | > 100 µM (inactive) | – | > 100 µM (inactive) | – | > 100 µM (inactive) | – | – | – | – |
| CCCCCCCCCC/C=C/C=O | > 100 µM (inactive) | – | > 100 µM (inactive) | > 100 µM (inactive) | > 100 µM (inactive) | > 100 µM (inactive) | – | – | – |
| COc1cc(OC)c2nc(C)c3c(c2c1)OCC3 | – | – | – | – | – | – | > 100 µM (inactive) | 12.6 µM (inactive) | > 100 µM (inactive) |
| C=CC[N+](CCO)(CCO)CCCCCCCCCCCCCCCCCC | – | – | 3.96 µM (inactive) | 8.34 µM (inactive) | – | 3.66 µM (inactive) | – | – | 23.5 µM (inactive) |
| COc1ccc(/C=N/n2cnc3[nH]c(C)c(Cc4ccccc4)c3c2=N)cc1 | – | – | – | – | – | – | > 100 µM (inactive) | 68.4 µM (inactive) | > 100 µM (inactive) |
| CC1=C(C(=O)Nc2ccccc2)C(c2ccc3c(c2)OCO3)C(C(=O)Nc2ccccc2)=C(C)N1 | 20 µM (inactive) | 28.7 µM (inactive) | 26.2 µM (inactive) | 41.5 µM (inactive) | 24.2 µM (inactive) | > 10 µM (inactive) | – | – | – |
| Cc1[nH]nc(-c2ccon2)c1N=O | – | – | – | – | – | – | – | 16.8 µM (inactive) | 19.8 µM (inactive) |
| COc1ccc(Nc2nc3ccccc3nc2-c2cccs2)cc1 | 54.5 µM (inactive) | – | 92.9 µM (inactive) | > 100 µM (inactive) | 78.2 µM (inactive) | 60 µM (inactive) | – | – | – |
| CC(C)CCNC(=O)c1ccc(CNC(=O)/C=C/c2ccc(OCc3ccccc3)cc2)cc1 | – | – | – | – | – | – | > 100 µM (inactive) | > 100 µM (inactive) | > 100 µM (inactive) |
| CC1=C2[C@@H](c3ccccc3)C3C=CC2(C=C3C(F)(F)F)N(C(=O)NC2CCCCC2)C1=O (some centres not stated) | 36.1 µM (inactive) | 39.7 µM (inactive) | 35.1 µM (inactive) | > 100 µM (inactive) | > 100 µM (inactive) | 93.1 µM (inactive) | – | – | – |
| N/C(S)=N/N=C/c1ccc(O)cn1 | 19.7 µM (inactive) | 31.2 µM (inactive) | – | 27.1 µM (inactive) | 12.4 µM (inactive) | – | 8.45 µM (inactive) | 18.5 µM (inactive) | 4.01 µM (inactive) |
| COC(=O)C(Cc1ccc(O)cc1)NC(=O)C(COCc1ccccc1)NC(=O)OCc1ccccc1 (configuration not stated) (Cbz-Ser(Bn)-Tyr-OMe; configuration not given here) | – | – | – | – | – | – | 17.6 µM (inactive) | 18.8 µM (inactive) | 19.6 µM (inactive) |
| CCCCN(CC)c1nc(C)nc2c1c(C)c(C)n2-c1c(C)cc(C)cc1C [ANTALARMIN] | – | – | – | – | – | – | 20.1 µM (inactive) | 14.2 µM (inactive) | 13.6 µM (inactive) |
